Assay results from patent US10519114B2, “Peptidomimetics and methods of using the same” (The Regents of the University of Michigan, priority 2016, dated 2019).

How the values were obtained:
[1] = target: T1, rat δ (C6-DOR) opioid receptor (Rattus norvegicus, UniProt P33533); assay: Radioligand binding assay, [3H]diprenorphine displacement, DOR; settings: displacement of 0.2 nM [3H]diprenorphine, C6-DOR membranes; mean ± standard error
T1 construct: expressed in transfected cells
Protocol: (§1) In Vitro Pharmacology-Cell Lines and Membrane Preparations. All tissue culture reagents were purchased from Gibco Life Sciences (Grand Island, N.Y., U.S.). C6-rat glioma cells stably transfected with a rat μ (C6-MOR) or rat δ (C6-DOR) opioid receptor20 and Chinese hamster ovary (CHO) cells stably expressing a human K (CHO-KOR) opioid receptor21 were used for all in vitro assays. Cells were grown to confluence at 37° C. in 5% CO2 in Dulbecco's modified Eagle medium containing 10% fetal bovine serum and 5% penicillin/streptomycin. Membranes were prepared by washing confluent cells three times with ice cold phosphate buffered saline (0.9% NaCl, 0.61 mM Na2HPO4, 0.38 mM KH2PO4, pH 7.4). Cells were detached from the plates by incubation in warm harvesting buffer (20 mM HEPES, 150 mM NaCl, 0.68 mM EDTA, pH 7.4) and pelleted by centrifugation at 200 g for 3 min. The cell pellet was suspended in ice-cold 50 mM Tris-HCl buffer, pH 7.4, and homogenized with a Tissue Tearor (Biospec Products, Inc., Bartlesville, Okla., U.S.) for 20 s at setting 4. The homogenate was centrifuged at 20 000 g for 20 min at 4° C., and the pellet was rehomogenized in 50 mM Tris-HCl with a Tissue Tearor for 10 s at setting 2, followed by recentrifugation. The final pellet was resuspended in 50 mM Tris-HCl and frozen in aliquots at […]. Protein concentration was determined via Bradford assay using bovine serum albumin as the standard.
(§2) Radioligand Binding Assays. Radioactive compounds were purchased from Perkin-Elmer (Waltham, Mass., U.S.). Opioid ligand binding assays were performed using competitive displacement of 0.2 nM [3H]diprenorphine (250 μCi, 1.85 TBq/mmol) by the test compound from membrane preparations containing opioid receptors. The assay mixture, containing membrane suspension (20 μg protein/tube) in 50 mM Tris-HCl buffer (pH 7.4), [3H]diprenorphine, and various concentrations of test peptide, was incubated at room temperature for 1 h to allow binding to reach equilibrium. The samples were rapidly filtered through Whatman GF/C filters using a Brandel harvester (Brandel, Gaithersburg, Md., U.S.) and washed three times with 50 mM Tris-HCl buffer. The radioactivity retained on dried filters was determined by liquid scintillation counting after saturation with EcoLume liquid scintillation cocktail in a Wallac 1450 MicroBeta (Perkin-Elmer, Waltham, Mass., U.S.). Nonspecific binding was determined using 10 μM naloxone. Inhibitory constant (Ki) values were calculated using nonlinear regression analysis to fit a logistic equation to the competition data using GraphPad Prism, version 5.01, for Windows (GraphPad Software Inc., La Jolla, Calif.). The results presented are the mean±standard error from at least three separate assays performed in duplicate.

[2] = target: T1, rat δ (C6-DOR) opioid receptor; assay: Stimulation of [35S]GTPγS binding, DOR; format: biochemical; settings: for Emax: [35S]GTPγS maximal stimulation compared with 10 μM standard DPDPE; for EC50: [35S]GTPγS binding, C6-DOR membranes, mean ± standard error
Protocol: as §1
(§3) Stimulation of [^35S]GTPyS Binding. Agonist stimulation of [35S]guanosine 5′-O-[γ-thio]triphosphate ([^35S]GTPγS, 1250 Ci, 46.2 TBq/mmol) binding was measured as described previously Briefly, membranes (10-20 μg of protein/tube) were incubated 1 h at room temperature in GTPyS buffer (50 mM Tris-HCl, 100 mM NaCl, 5 mM MgCl2, pH 7.4) containing 0.1 nM [^35S]GTPγS, 30 μM guanosine diphosphate (GDP), and varying concentrations of test peptides. Peptide stimulation of [^35S]GTPyS was compared with 10 μM standard compounds [D-Ala^2,N-MePhe^4,Gly-ol]encephalin (DAMGO) at MOR, D-Pen^2,5-enkephalin (DPDPE) at DOR, or […] at KOR. The reaction was terminated by rapidly filtering through GF/C filters and washing 10 times with GTPyS buffer, and retained radioactivity was measured as described above. The results presented are the mean±standard error from at least three separate assays performed in duplicate; maximal stimulation was determined using nonlinear regression analysis with GraphPad Prism (GraphPad Software Inc., La Jolla, Calif.).

[3] = target: T2, human κ (CHO-KOR) opioid receptor (Homo sapiens, UniProt P41145); assay: Radioligand binding assay, [3H]diprenorphine displacement, KOR; settings: displacement of 0.2 nM [3H]diprenorphine, CHO-KOR membranes; mean ± standard error
T2 construct: expressed in transfected cells
Protocol: as §1, §2

[4] = target: T3, rat μ (C6-MOR) opioid receptor (Rattus norvegicus, UniProt P33535); assay: Stimulation of [35S]GTPγS binding, MOR; format: biochemical; settings: for Emax: [35S]GTPγS maximal stimulation compared with 10 μM standard DAMGO; for EC50: [35S]GTPγS binding, C6-MOR membranes, mean ± standard error
T3 construct: expressed in transfected cells
Protocol: as §1, §3

[5] = target: T3, rat μ (C6-MOR) opioid receptor; assay: Radioligand binding assay, [3H]diprenorphine displacement, MOR; settings: displacement of 0.2 nM [3H]diprenorphine, C6-MOR membranes; mean ± standard error
Protocol: as §1, §2

[6] = target: T2, human κ (CHO-KOR) opioid receptor; assay: Stimulation of [35S]GTPγS binding, KOR; format: biochemical; settings: for Emax: [35S]GTPγS maximal stimulation compared with 10 μM standard U-69,593; for EC50: [35S]GTPγS binding, CHO-KOR membranes, mean ± standard error
Protocol: as §1, §3

T3 sequence (P33535 whole entry): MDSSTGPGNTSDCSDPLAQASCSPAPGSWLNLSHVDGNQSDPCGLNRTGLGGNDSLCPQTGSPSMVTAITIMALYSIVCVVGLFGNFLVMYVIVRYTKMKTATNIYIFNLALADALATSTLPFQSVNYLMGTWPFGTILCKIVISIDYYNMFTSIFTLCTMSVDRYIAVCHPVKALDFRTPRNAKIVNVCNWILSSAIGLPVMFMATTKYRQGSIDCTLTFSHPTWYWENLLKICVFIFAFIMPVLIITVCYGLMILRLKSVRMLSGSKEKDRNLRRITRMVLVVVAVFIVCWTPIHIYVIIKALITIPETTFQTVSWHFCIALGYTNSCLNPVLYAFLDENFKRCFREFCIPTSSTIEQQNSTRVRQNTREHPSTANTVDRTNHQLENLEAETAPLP
T2 sequence (P41145 whole entry): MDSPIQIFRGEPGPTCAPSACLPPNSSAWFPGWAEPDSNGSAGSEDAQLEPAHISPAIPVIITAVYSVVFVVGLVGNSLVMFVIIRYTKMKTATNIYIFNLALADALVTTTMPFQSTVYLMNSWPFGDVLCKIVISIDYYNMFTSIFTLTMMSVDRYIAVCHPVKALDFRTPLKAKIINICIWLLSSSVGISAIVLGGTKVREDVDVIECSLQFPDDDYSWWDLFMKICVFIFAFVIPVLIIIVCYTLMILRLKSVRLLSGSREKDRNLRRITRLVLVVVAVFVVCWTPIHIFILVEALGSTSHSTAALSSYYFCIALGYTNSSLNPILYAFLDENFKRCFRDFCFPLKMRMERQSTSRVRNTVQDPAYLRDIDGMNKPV
T1 sequence (P33533 whole entry): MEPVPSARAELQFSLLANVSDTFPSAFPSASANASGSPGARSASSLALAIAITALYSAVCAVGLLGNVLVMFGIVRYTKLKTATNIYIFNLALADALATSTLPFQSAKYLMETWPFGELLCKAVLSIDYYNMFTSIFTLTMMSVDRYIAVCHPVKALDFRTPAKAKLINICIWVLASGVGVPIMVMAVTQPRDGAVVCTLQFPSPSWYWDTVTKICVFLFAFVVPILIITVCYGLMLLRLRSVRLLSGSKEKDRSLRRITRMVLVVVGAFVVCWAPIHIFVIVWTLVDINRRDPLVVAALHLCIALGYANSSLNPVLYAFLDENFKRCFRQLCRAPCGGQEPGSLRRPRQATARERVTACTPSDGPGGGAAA

Row | Compound | Ki [1] [nM] | Emax [2] [%] | Ki [3] [nM] | Emax [4] [%] | Ki [5] [nM] | Emax [6] [%] | EC50 [2] [nM] | EC50 [4] [nM] | EC50 [6] [nM]
1 | Cc1cc(O)cc(C)c1C[C@H](N)C(=O)N[C@H]1CCNc2ccc(Cc3ccc(F)cc3)cc21 [Compound 1010] | 190 | 12 | 90 | 58 | 10 | 0 |  |  | 
2 | CCCCCCc1ccc2c(c1)[C@H](NC(=O)[C@@H](N)Cc1c(C)cc(O)cc1C)CCN2 [Compound 1011] | 5.89 ± 0.76 | 2.5 ± 2.5 | 15.1 ± 5.7 | 35.9 ± 5.28 | 0.13 ± 0.02 | 34.6 ± 1.11 | 1.7 | 2.41 ± 0.81 | 773 ± 26.5
3 | CCCCCCc1ccc2c(c1)[C@@H](NC(=O)[C@@H](N)Cc1c(C)cc(O)cc1C)CCN2 [Compound 1012] | 1240 ± 438 | 22 | 3900 | 18 | 297 ± 72 | 0 | > 10000 | > 1000 | 
4 | CCCCCc1ccc2c(c1)[C@H](NC(=O)[C@@H](N)Cc1c(C)cc(O)cc1C)CCN2 [Compound 1013] | 8.81 ± 2.89 | 0 | 22.5 ± 10.3 | 20.2 ± 7.11 | 0.22 ± 0.09 | 23.7 ± 0.83 |  | 12 ± 5.77 | 543 ± 148
5 | Cc1cc(O)cc(C)c1C[C@H](N)C(=O)N[C@@H]1C[C@@H](C)Nc2ccc(Cc3ccccc3)cc21 [Compound 1014] | 87.2 ± 56.2 | 44.9 ± 8.25 | 238 ± 21.7 | 87.8 ± 2 | 1.24 ± 0.5 | 28.9 ± 12.3 | 627 ± 88.9 | 8.93 ± 4 | 4070
6 | Cc1cc(O)cc(C)c1C[C@H](N)C(=O)N(C1CC1)[C@@H]1CCNc2ccc(Cc3ccccc3)cc21 [Compound 1015] | 23.4 ± 10.9 | 19.5 ± 2.83 | 58.9 ± 28.5 | 15.8 ± 3.75 | 25.6 ± 9.83 | -1.84 ± 1.83 | 149 ± 42 | 131 ± 21.2 | 
7 | Cc1cc(O)cc(C)c1C[C@H](N)C(=O)N(C1CC1)C1CCNc2ccc(Cc3ccccc3)cc21 (stereo partly shown) [Compound 1016] | 52.5 ± 17.8 | 0.82 ± 3.63 | 28.6 ± 7.24 | 40.1 ± 10.7 | 5.33 ± 2.43 | -0.01 ± 0.01 |  | 28.4 ± 4.4 | 
8 | Cc1cc(O)cc(C)c1C[C@H](N)C(=O)NC1CCNc2ccc(Oc3ccccc3)cc21 (stereo partly shown) [Compound 1017] | 13.9 ± 6.7 | 9.8 ± 5.49 | 65.5 ± 9.66 | 68 ± 2.33 | 0.42 ± 0.04 | 23.6 | 108 ± 53.3 | 14.9 ± 5.37 | 957
9 | CC(=O)N1CC[C@@H](NC(=O)[C@@H](N)Cc2c(C)cc(O)cc2C)c2cc(Oc3ccccc3)ccc21 [Compound 1019] | 4.21 ± 1.26 | 15.8 | 32.98 ± 0.1 | 76.6 ± 2.66 | 0.1 ± 0.02 | 37.3 | 222 | 6.49 ± 3.21 | 1080
